Results as given in ChEMBL document CHEMBL5321283, “Structure-Activity Relationships of the Antimicrobial Peptide Natural Product Apidaecin” (J Med Chem, 2023).
Converted amounts (≈) assume the structure as drawn. *1 amine or outer side, *2 acyl side, *3 side chain or, on linkers, in order; H or OH if unused. Where a SMILES comes first, the peptide text is derived from it. [ ]: non-standard residue; d: D form. The star is where a group is joined. Orn(α-tetramethylguanidino) = CN(C)C(=N[C@@H](CCCN)C(=O)*)N(C)C; X1 = N=C(N)NCCC[C@H](NC(=S)[C@@H]1CCCN1[*:1])C(=O)[*:2]; 2Nal = N[C@@H](Cc1ccc2ccccc2c1)C(=O)O; Hyp = O=C(O)[C@@H]1C[C@@H](O)CN1; hArg = N=C(N)NCCCC[C@H](N)C(=O)O; Cha = N[C@@H](CC1CCCCC1)C(=O)O; Cit = NC(=O)NCCC[C@H](N)C(=O)O; dLeu(ol) = CC(C)C[C@@H](N)CO; Leu(ol) = CC(C)C[C@H](N)CO; NHIsopentyl = CC(C)CCN*

Legend:
Escherichia coli [1] = assay: Potency index, ratio of Api-137 MIC to test compound MIC for antibacterial activity against Escherichia coli BL21 assessed as bacterial growth inhibition by broth microdilution assay; assay type: functional
Escherichia coli [2] = assay: Antibacterial activity against Escherichia coli BL21 assessed as bacterial growth inhibition by broth microdilution assay; assay type: functional

| SMILES | Ratio (Escherichia coli [1]) | MIC (Escherichia coli [2]) [µM] |
| --- | --- | --- |
| CC[C@H](C)[C@H](NC(=O)[C@H](Cc1ccc(O)cc1)NC(=O)[C@@H](NC(=O)[C@@H]1CCCN1C(=O)[C@H](CCCNC(=N)N)NC(=O)[C@H](CC(N)=O)NC(=O)[C@H](CC(N)=O)NC(=O)[C@H](CCCN)N=C(N(C)C)N(C)C)C(C)C)C(=O)N1CCC[C@H]1C(=O)N[C@@H](CCCNC(=N)N)C(=O)N1CCC[C@H]1C(=O)N[C@@H](CCCNC(=N)N)C(=O)N1CCC[C@H]1C(=O)N1CCC[C@H]1C(=O)N[C@@H](Cc1c[nH]cn1)C(=O)N1CCC[C@H]1C(=O)N[C@@H](CCCNC(=N)N)C(=O)N[C@@H](CO)Cc1ccccc1 | 800 | 40 (≈ 92.5 µg/mL) |
| CC[C@H](C)[C@H](NC(=O)[C@H](Cc1ccc(O)cc1)NC(=O)[C@@H](NC(=O)[C@@H]1CCCN1C(=O)[C@H](CCCNC(=N)N)NC(=O)[C@H](CC(N)=O)NC(=O)[C@H](CC(N)=O)NC(=O)[C@H](CCCN)N=C(N(C)C)N(C)C)C(C)C)C(=O)N1CCC[C@H]1C(=O)N[C@@H](CCCNC(=N)N)C(=O)N1CCC[C@H]1C(=O)N[C@@H](CCCNC(=N)N)C(=O)N1CCC[C@H]1C(=O)N1CCC[C@H]1C(=O)N[C@@H](Cc1c[nH]cn1)C(=O)N1CCC[C@H]1C(=O)N[C@@H](CCCNC(=N)N)C(=O)N[C@H](CO)Cc1ccccc1 | 32 | 5 (≈ 11.6 µg/mL) |
| CC[C@H](C)[C@H](NC(=O)[C@H](Cc1ccc(OC)cc1)NC(=O)[C@@H](NC(=O)[C@@H]1CCCN1C(=O)[C@H](CCCNC(=N)N)NC(=O)[C@H](CC(N)=O)NC(=O)[C@H](CC(N)=O)NC(=O)[C@H](CCCN)N=C(N(C)C)N(C)C)C(C)C)C(=O)N1CCC[C@H]1C(=O)N[C@@H](CCCNC(=N)N)C(=O)N1CCC[C@H]1C(=O)N[C@@H](CCCNC(=N)N)C(=O)N1CCC[C@H]1C(=O)N1CCC[C@H]1C(=O)N[C@@H](Cc1c[nH]cn1)C(=O)N1CCC[C@H]1C(=O)N[C@@H](CCCNC(=N)N)C(=O)N[C@@H](CC(C)C)C(=O)O ({Orn(α-tetramethylguanidino)}-NNRPVY(Me)IPRPRPPHPRL-OH) | 4 | 1.5 (≈ 3.46 µg/mL) |
| CC[C@H](C)[C@H](NC(=O)[C@H](Cc1ccc(O)cc1)NC(=O)[C@@H](NC(=O)[C@@H]1CCCN1C(=O)[C@H](CCCNC(=N)N)NC(=O)[C@H](CC(N)=O)NC(=O)[C@H](CC(N)=O)NC(=O)[C@H](CCCN)N=C(N(C)C)N(C)C)C(C)C)C(=O)N1CCC[C@H]1C(=O)N[C@@H](CCCNC(=N)N)C(=O)N1CCC[C@H]1C(=O)N[C@@H](CCCNC(=N)N)C(=O)N1CCC[C@H]1C(=O)N1CCC[C@H]1C(=O)N[C@@H](Cc1c[nH]cn1)C(=O)N1CCC[C@H]1C(=O)N[C@@H](CCCNC(=N)N)C(=O)NCCC(C)C ({Orn(α-tetramethylguanidino)}-NNRPVYIPRPRPPHPR-NHIsopentyl) | >800 | > 40 |
| CC[C@H](C)[C@H](NC(=O)[C@H](Cc1ccc(O)cc1)NC(=O)[C@@H](NC(=O)[C@@H]1CCCN1C(=O)[C@H](CCCNC(=N)N)NC(=O)[C@H](CC(N)=O)NC(=O)[C@H](CC(N)=O)NC(=O)[C@H](CCCN)N=C(N(C)C)N(C)C)C(C)C)C(=O)N1CCC[C@H]1C(=O)N[C@@H](CCCNC(=N)N)C(=O)N1CCC[C@H]1C(=O)N[C@@H](CCCNC(=N)N)C(=O)N1CCC[C@H]1C(=O)N1CCC[C@H]1C(=O)N[C@@H](Cc1c[nH]cn1)C(=O)N1CCC[C@H]1C(=O)N[C@@H](CCCNC(=N)N)C(=O)N[C@H](CO)CC(C)C ({Orn(α-tetramethylguanidino)}-NNRPVYIPRPRPPHPR[Leu(ol)]) | 32 | 5 (≈ 11.4 µg/mL) |
| CC[C@H](C)[C@H](NC(=O)[C@H](Cc1ccc(O)cc1)NC(=O)[C@@H](NC(=O)[C@@H]1CCCN1C(=O)[C@H](CCCNC(=N)N)NC(=O)[C@H](CC(N)=O)NC(=O)[C@H](CC(N)=O)NC(=O)[C@H](CCCN)N=C(N(C)C)N(C)C)C(C)C)C(=O)N1CCC[C@H]1C(=O)N[C@@H](CCCNC(=N)N)C(=O)N1CCC[C@H]1C(=O)N[C@@H](CCCNC(=N)N)C(=O)N1CCC[C@H]1C(=O)N1CCC[C@H]1C(=O)N[C@@H](Cc1c[nH]cn1)C(=O)N1CCC[C@H]1C(=O)N[C@@H](CCCNC(=N)N)C(=O)N[C@@H](CO)CC(C)C ({Orn(α-tetramethylguanidino)}-NNRPVYIPRPRPPHPR[dLeu(ol)]) | 62 | 10 (≈ 22.8 µg/mL) |
| CC[C@H](C)[C@H](NC(=O)[C@H](Cc1ccc(O)cc1)NC(=O)[C@@H](NC(=O)[C@@H]1CCCN1C(=O)[C@H](CCCNC(=N)N)NC(=O)[C@H](CC(N)=O)NC(=O)[C@H](CC(N)=O)NC(=O)[C@H](CCCN)N=C(N(C)C)N(C)C)C(C)C)C(=O)N1CCC[C@H]1C(=O)N[C@@H](CCCNC(=N)N)C(=O)N1CCC[C@H]1C(=O)N[C@@H](CCCNC(=N)N)C(=O)N1CCC[C@H]1C(=O)N1CCC[C@H]1C(=O)N[C@@H](Cc1c[nH]cn1)C(=O)N1CCC[C@H]1C(=O)N[C@@H](CCCNC(N)=O)C(=O)N[C@@H](CC(C)C)C(=O)O ({Orn(α-tetramethylguanidino)}-NNRPVYIPRPRPPHP[Cit]L-OH) | 128 | 20 (≈ 45.9 µg/mL) |
| CC[C@H](C)[C@H](NC(=O)[C@H](Cc1ccc(O)cc1)NC(=O)[C@@H](NC(=O)[C@@H]1CCCN1C(=O)[C@H](CCCNC(=N)N)NC(=O)[C@H](CC(N)=O)NC(=O)[C@H](CC(N)=O)NC(=O)[C@H](CCCN)N=C(N(C)C)N(C)C)C(C)C)C(=O)N1CCC[C@H]1C(=O)N[C@@H](CCCNC(=N)N)C(=O)N1CCC[C@H]1C(=O)N[C@@H](CCCNC(=N)N)C(=O)N1CCC[C@H]1C(=O)N1CCC[C@H]1C(=O)N[C@@H](Cc1c[nH]cn1)C(=O)N1CCC[C@H]1C(=O)N[C@@H](CCCCNC(=N)N)C(=O)N[C@@H](CC(C)C)C(=O)O ({Orn(α-tetramethylguanidino)}-NNRPVYIPRPRPPHP[hArg]L-OH) | 16 | 2.5 (≈ 5.76 µg/mL) |
| CC[C@H](C)[C@H](NC(=O)[C@H](Cc1ccc(O)cc1)NC(=O)[C@@H](NC(=O)[C@@H]1CCCN1C(=O)[C@H](CCCNC(=N)N)NC(=O)[C@H](CC(N)=O)NC(=O)[C@H](CC(N)=O)NC(=O)[C@H](CCCN)N=C(N(C)C)N(C)C)C(C)C)C(=O)N1CCC[C@H]1C(=O)N[C@@H](CCCNC(=N)N)C(=O)N1CCC[C@H]1C(=O)N[C@@H](CCCNC(=N)N)C(=O)N1CCC[C@H]1C(=O)N1CCC[C@H]1C(=O)N[C@@H](Cc1c[nH]cn1)C(=O)N1C[C@H](O)C[C@H]1C(=O)N[C@@H](CCCNC(=N)N)C(=O)N[C@@H](CC(C)C)C(=O)O ({Orn(α-tetramethylguanidino)}-NNRPVYIPRPRPPH[Hyp]RL-OH) | 2 | 0.3 (≈ 0.692 µg/mL) |
| CC[C@H](C)[C@H](NC(=O)[C@H](Cc1ccc(O)cc1)NC(=O)[C@@H](NC(=O)[C@@H]1CCCN1C(=O)[C@H](CCCNC(=N)N)NC(=O)[C@H](CC(N)=O)NC(=O)[C@H](CC(N)=O)NC(=O)[C@H](CCCN)N=C(N(C)C)N(C)C)C(C)C)C(=O)N1CCC[C@H]1C(=O)N[C@@H](CCCNC(=N)N)C(=O)N1CCC[C@H]1C(=O)N[C@@H](CCCNC(=N)N)C(=O)N1CCC[C@H]1C(=O)N1CCC[C@H]1C(=O)N[C@@H](Cc1c[nH]cn1)C(=O)N1CCC[C@H]1C(=S)N[C@@H](CCCNC(=N)N)C(=O)N[C@@H](CC(C)C)C(=O)O ({Orn(α-tetramethylguanidino)}-NNRPVYIPRPRPPH[X1]L-OH) | 4 | 0.62 (≈ 1.43 µg/mL) |
| CC[C@H](C)[C@H](NC(=O)[C@H](Cc1ccc(O)cc1)NC(=O)[C@@H](NC(=O)[C@@H]1CCCN1C(=O)[C@H](CCCNC(=N)N)NC(=O)[C@H](CC(N)=O)NC(=O)[C@H](CC(N)=O)NC(=O)[C@H](CCCN)N=C(N(C)C)N(C)C)C(C)C)C(=O)N1CCC[C@H]1C(=O)N[C@@H](CCCNC(=N)N)C(=O)N1CCC[C@H]1C(=O)N[C@@H](CCCNC(=N)N)C(=O)N1CCC[C@H]1C(=O)N1CCC[C@H]1C(=O)N[C@@H](Cc1c[nH]c2ccccc12)C(=O)N1CCC[C@H]1C(=O)N[C@@H](CCCNC(=N)N)C(=O)N[C@@H](CC(C)C)C(=O)O ({Orn(α-tetramethylguanidino)}-NNRPVYIPRPRPPWPRL-OH) | 8 | 1.2 (≈ 2.81 µg/mL) |
| CC[C@H](C)[C@H](NC(=O)[C@H](Cc1ccc(O)cc1)NC(=O)[C@@H](NC(=O)[C@@H]1CCCN1C(=O)[C@H](CCCNC(=N)N)NC(=O)[C@H](CC(N)=O)NC(=O)[C@H](CC(N)=O)NC(=O)[C@H](CCCN)N=C(N(C)C)N(C)C)C(C)C)C(=O)N1CCC[C@H]1C(=O)N[C@@H](CCCNC(=N)N)C(=O)N1CCC[C@H]1C(=O)N[C@@H](CCCNC(=N)N)C(=O)N1CCC[C@H]1C(=O)N1CCC[C@H]1C(=O)N[C@@H](Cc1ccc2ccccc2c1)C(=O)N1CCC[C@H]1C(=O)N[C@@H](CCCNC(=N)N)C(=O)N[C@@H](CC(C)C)C(=O)O ({Orn(α-tetramethylguanidino)}-NNRPVYIPRPRPP[2Nal]PRL-OH) | 63 | 10 (≈ 23.5 µg/mL) |
| CC[C@H](C)[C@H](NC(=O)[C@H](Cc1ccc(O)cc1)NC(=O)[C@@H](NC(=O)[C@@H]1CCCN1C(=O)[C@H](CCCNC(=N)N)NC(=O)[C@H](CC(N)=O)NC(=O)[C@H](CC(N)=O)NC(=O)[C@H](CCCN)N=C(N(C)C)N(C)C)C(C)C)C(=O)N1CCC[C@H]1C(=O)N[C@@H](CCCNC(=N)N)C(=O)N1CCC[C@H]1C(=O)N[C@@H](CCCNC(=N)N)C(=O)N1CCC[C@H]1C(=O)N1CCC[C@H]1C(=O)N[C@@H](CC1CCCCC1)C(=O)N1CCC[C@H]1C(=O)N[C@@H](CCCNC(=N)N)C(=O)N[C@@H](CC(C)C)C(=O)O ({Orn(α-tetramethylguanidino)}-NNRPVYIPRPRPP[Cha]PRL-OH) | 32 | 5 (≈ 11.5 µg/mL) |
| CC[C@H](C)[C@H](NC(=O)[C@H](Cc1ccc(O)cc1)NC(=O)[C@@H](NC(=O)[C@@H]1CCCN1C(=O)[C@H](CCCNC(=N)N)NC(=O)[C@H](CC(N)=O)NC(=O)[C@H](CC(N)=O)NC(=O)[C@H](CCCN)N=C(N(C)C)N(C)C)C(C)C)C(=O)N1CCC[C@H]1C(=O)N[C@@H](CCCNC(=N)N)C(=O)N1CCC[C@H]1C(=O)N[C@@H](CCCNC(=N)N)C(=O)N1CCC[C@H]1C(=O)N1C[C@H](O)C[C@H]1C(=O)N[C@@H](Cc1c[nH]cn1)C(=O)N1CCC[C@H]1C(=O)N[C@@H](CCCNC(=N)N)C(=O)N[C@@H](CC(C)C)C(=O)O ({Orn(α-tetramethylguanidino)}-NNRPVYIPRPRP[Hyp]HPRL-OH) | 2 | 0.6 (≈ 1.38 µg/mL) |
